{"source": "patent US5856359A", "about": "“Thyroxine/cyclodextrin complexes and pharmaceutical compositions containing the same” (Hexal AG, priority 1995, dated 1999)", "type_in_all_cases": "physicochemical", "key": {"[1]": {"experiment": "Aqueous solubility of L-thyroxine free acid in the presence of γ-cyclodextrin", "method": "This poor solubility can be affected positively by employing γ-cyclodextrin. The effect of γ-cyclodextrin as to the aqueous solubility of thyroxine acid is shown by the results in the table below:\nAqueous solubility of thyroxine free acid in the\npresence of γ-cyclodextrin at 25° C. studied on two"}, "[2]": {"experiment": "Aqueous solubility of L-thyroxine sodium salt in the presence of cyclodextrins", "description": "Interaction between L-thyroxine sodium and cyclodextrins in presence of water.\nOne evidence of the interaction between L-thyroxine and cyclodextrins is that the cyclodextrins increase the aqueous solubility of the thyroxine as shown in Table 1.\nSolubility of L-thyroxine sodium salt in the presence of CDs (mg/ml)"}, "[3]": {"experiment": "Physical stability of aqueous gels and solutions on storage", "method": "150 mg of a water swellable polymer (i.e. Klucel; Hercules Corp. USA) was added.\nThe aqueous gel containing γ-cyclodextrin solubilized thyroxine was prepared by mixing at room temperature 150 mg of Pionier NP37 (polyacrylicacid) with 10 ml of 10% aqueous γ-cyclodextrin solution containing 300 mg solubilized L-thyroxine-Na.\n10 ml of the aqueous Pionier NP37-thyroxine/γ-cyclodextrin formulation was stored in sealed polyethylene bags as well as in capped glass vials under normal laboratory conditions (22° C. exposed to day light) for two weeks and the turbidity of the samples was investigated."}}, "note": "Where a name gives a salt, the structure may show the parent alone."}
{"compound": "N[C@@H](Cc1cc(I)c(Oc2cc(I)c(O)c(I)c2)c(I)c1)C(=O)O", "note": "[L-thyroxine free acid, 0-(4-hydroxy-3,5-diiodophenyl)-3,5-diiodotyrosine]", "values": [{"measurement": "enhancement of aqueous solubility of the acid form of thyroxine", "setting": "[1]; cyclodextrin 20% by weight", "value": "enhanced by about ten-fold"}, {"measurement": "solubility", "setting": "[1]; water with γ-cyclodextrin, γ-cyclodextrin 5 g/100 ml, 25° C., 1-st run, read-out: solubility of thyroxine free acid", "value": 400, "unit": "µg/mL"}, {"measurement": "solubility", "setting": "[1]; water with γ-cyclodextrin, γ-cyclodextrin 5 g/100 ml, 25° C., 2-nd run, read-out: solubility of thyroxine free acid", "value": 379, "unit": "µg/mL"}, {"measurement": "solubility", "setting": "[1]; water with γ-cyclodextrin, γ-cyclodextrin 10 g/100 ml, 25° C., 1-st run, read-out: solubility of thyroxine free acid", "value": 646, "unit": "µg/mL"}, {"measurement": "solubility", "setting": "[1]; water with γ-cyclodextrin, γ-cyclodextrin 10 g/100 ml, 25° C., 2-nd run, read-out: solubility of thyroxine free acid", "value": 652, "unit": "µg/mL"}, {"measurement": "solubility", "setting": "[1]; water with γ-cyclodextrin, γ-cyclodextrin 12 g/100 ml, 25° C., 1-st run, read-out: solubility of thyroxine free acid", "value": 765, "unit": "µg/mL"}, {"measurement": "solubility", "setting": "[1]; water with γ-cyclodextrin, γ-cyclodextrin 12 g/100 ml, 25° C., 2-nd run, read-out: solubility of thyroxine free acid", "value": 800, "unit": "µg/mL"}, {"measurement": "solubility", "setting": "[1]; water with γ-cyclodextrin, γ-cyclodextrin 15 g/100 ml, 25° C., 1-st run, read-out: solubility of thyroxine free acid", "value": 1020, "unit": "µg/mL"}, {"measurement": "solubility", "setting": "[1]; water with γ-cyclodextrin, γ-cyclodextrin 15 g/100 ml, 25° C., 2-nd run, read-out: solubility of thyroxine free acid", "value": 1000, "unit": "µg/mL"}, {"measurement": "solubility", "setting": "[1]; water with γ-cyclodextrin, γ-cyclodextrin 20 g/100 ml, 25° C., 1-st run, read-out: solubility of thyroxine free acid", "value": 1390, "unit": "µg/mL"}, {"measurement": "solubility", "setting": "[1]; water with γ-cyclodextrin, γ-cyclodextrin 20 g/100 ml, 25° C., 2-nd run, read-out: solubility of thyroxine free acid", "value": 1440, "unit": "µg/mL"}, {"measurement": "solubility", "setting": "[1]; water, without cyclodextrin, read-out: aqueous solubility of the free acid form of L-thyroxine", "value": "110 to 150", "unit": "µg/mL"}, {"measurement": "solubility", "setting": "[1]; water, γ-cyclodextrin 0 g/100 ml, 25° C., 1-st run, read-out: solubility of thyroxine free acid", "value": 110, "unit": "µg/mL"}, {"measurement": "solubility", "setting": "[1]; water, γ-cyclodextrin 0 g/100 ml, 25° C., 2-nd run, read-out: solubility of thyroxine free acid", "value": 150, "unit": "µg/mL"}]}
{"compound": "N[C@@H](Cc1cc(I)c(Oc2cc(I)c(O)c(I)c2)c(I)c1)C(=O)O", "note": "[L-thyroxine sodium salt, Levothyroxine sodium]", "values": [{"measurement": "solubility", "setting": "[2]; water with 2-hydroxypropylated-β-cyclodextrin, 2-hydroxypropylated-β-cyclodextrin 1.0%", "value": 1440, "unit": "µg/mL"}, {"measurement": "solubility", "setting": "[2]; water with 2-hydroxypropylated-β-cyclodextrin, 2-hydroxypropylated-β-cyclodextrin 5.0%", "value": 2900, "unit": "µg/mL"}, {"measurement": "solubility", "setting": "[2]; water with 2-hydroxypropylated-β-cyclodextrin, 2-hydroxypropylated-β-cyclodextrin 7.0%", "value": 2740, "unit": "µg/mL"}, {"measurement": "solubility", "setting": "[2]; water with 2-hydroxypropylated-β-cyclodextrin, 2-hydroxypropylated-β-cyclodextrin 10.0%", "value": 2770, "unit": "µg/mL"}, {"measurement": "solubility", "setting": "[2]; water with 2-hydroxypropylated-β-cyclodextrin, 2-hydroxypropylated-β-cyclodextrin 12.0%", "value": 3050, "unit": "µg/mL"}, {"measurement": "solubility", "setting": "[2]; water with 2-hydroxypropylated-β-cyclodextrin, 2-hydroxypropylated-β-cyclodextrin 15.0%", "value": 3140, "unit": "µg/mL"}, {"measurement": "solubility", "setting": "[2]; water with 2-hydroxypropylated-β-cyclodextrin, 2-hydroxypropylated-β-cyclodextrin 3.0%", "value": 3100, "unit": "µg/mL"}, {"measurement": "solubility", "setting": "[2]; water with heptakis-2,6-di-o-methyl-β-cyclodextrin, heptakis-2,6-di-O-methyl-β-cyclodextrin 1.0%", "value": 3160, "unit": "µg/mL"}, {"measurement": "solubility", "setting": "[2]; water with heptakis-2,6-di-o-methyl-β-cyclodextrin, heptakis-2,6-di-O-methyl-β-cyclodextrin 3.0%", "value": 5500, "unit": "µg/mL"}, {"measurement": "solubility", "setting": "[2]; water with randomly-methylated-β-cyclodextrin, randomly-methylated-β-cyclodextrin 1.0%", "value": 3700, "unit": "µg/mL"}, {"measurement": "solubility", "setting": "[2]; water with randomly-methylated-β-cyclodextrin, randomly-methylated-β-cyclodextrin 5.0%", "value": 8360, "unit": "µg/mL"}, {"measurement": "solubility", "setting": "[2]; water with randomly-methylated-β-cyclodextrin, randomly-methylated-β-cyclodextrin 7.0%", "value": 9330, "unit": "µg/mL"}, {"measurement": "solubility", "setting": "[2]; water with randomly-methylated-β-cyclodextrin, randomly-methylated-β-cyclodextrin 10.0%", "value": 10300, "unit": "µg/mL"}, {"measurement": "solubility", "setting": "[2]; water with randomly-methylated-β-cyclodextrin, randomly-methylated-β-cyclodextrin 12.0%", "value": 13300, "unit": "µg/mL"}, {"measurement": "solubility", "setting": "[2]; water with randomly-methylated-β-cyclodextrin, randomly-methylated-β-cyclodextrin 15.0%", "value": 16800, "unit": "µg/mL"}, {"measurement": "solubility", "setting": "[2]; water with randomly-methylated-β-cyclodextrin, randomly-methylated-β-cyclodextrin 3.0%", "value": 6150, "unit": "µg/mL"}, {"measurement": "solubility", "setting": "[2]; water with γ-cyclodextrin, γ-cyclodextrin 1.0%", "value": 5480, "unit": "µg/mL"}, {"measurement": "solubility", "setting": "[2]; water with γ-cyclodextrin, γ-cyclodextrin 5.0%", "value": 16900, "unit": "µg/mL"}, {"measurement": "solubility", "setting": "[2]; water with γ-cyclodextrin, γ-cyclodextrin 7.0%", "value": 26600, "unit": "µg/mL"}, {"measurement": "solubility", "setting": "[2]; water with γ-cyclodextrin, γ-cyclodextrin 12.0%", "value": 35100, "unit": "µg/mL"}, {"measurement": "solubility", "setting": "[2]; water with γ-cyclodextrin, γ-cyclodextrin 15.0%", "value": 44200, "unit": "µg/mL"}, {"measurement": "solubility", "setting": "[2]; water with γ-cyclodextrin, γ-cyclodextrin 3.0%", "value": 12100, "unit": "µg/mL"}, {"measurement": "solubility", "setting": "[2]; water, 1.0% maltosyl-β-cyclodextrin, Maltosyl-β-cyclodextrin 1.0%", "value": 2290, "unit": "µg/mL"}, {"measurement": "solubility", "setting": "[2]; water, 2-hydroxypropylated-β-cyclodextrin column, 0% (no CDs)", "value": 2000, "unit": "µg/mL"}, {"measurement": "solubility", "setting": "[2]; water, 3.0% maltosyl-β-cyclodextrin, Maltosyl-β-cyclodextrin 3.0%", "value": 2480, "unit": "µg/mL"}, {"measurement": "solubility", "setting": "[2]; water, 5.0% dimethyl-β-cyclodextrin, heptakis-2,6-di-O-methyl-β-cyclodextrin 5.0%", "value": 7000, "unit": "µg/mL"}, {"measurement": "solubility", "setting": "[2]; water, 5.0% maltosyl-β-cyclodextrin, Maltosyl-β-cyclodextrin 5.0%", "value": 2320, "unit": "µg/mL"}, {"measurement": "solubility", "setting": "[2]; water, 7.0% dimethyl-β-cyclodextrin, heptakis-2,6-di-O-methyl-β-cyclodextrin 7.0%", "value": 7620, "unit": "µg/mL"}, {"measurement": "solubility", "setting": "[2]; water, 7.0% maltosyl-β-cyclodextrin, Maltosyl-β-cyclodextrin 7.0%", "value": 2940, "unit": "µg/mL"}, {"measurement": "solubility", "setting": "[2]; water, 10.0% maltosyl-β-cyclodextrin, Maltosyl-β-cyclodextrin 10.0%", "value": 2730, "unit": "µg/mL"}, {"measurement": "solubility", "setting": "[2]; water, 12.0% dimethyl-β-cyclodextrin, heptakis-2,6-di-O-methyl-β-cyclodextrin 12.0%", "value": 12100, "unit": "µg/mL"}, {"measurement": "solubility", "setting": "[2]; water, 12.0% maltosyl-β-cyclodextrin, Maltosyl-β-cyclodextrin 12.0%", "value": 2800, "unit": "µg/mL"}, {"measurement": "solubility", "setting": "[2]; water, 15.0% dimethyl-β-cyclodextrin, heptakis-2,6-di-O-methyl-β-cyclodextrin 15.0%", "value": 14200, "unit": "µg/mL"}, {"measurement": "solubility", "setting": "[2]; water, 15.0% maltosyl-β-cyclodextrin, Maltosyl-β-cyclodextrin 15.0%", "value": 2680, "unit": "µg/mL"}, {"measurement": "solubility", "setting": "[2]; water, Maltosyl-β-cyclodextrin column, 0% (no CDs)", "value": 2000, "unit": "µg/mL"}, {"measurement": "solubility", "setting": "[2]; water, heptakis-2,6-di-O-methyl-β-cyclodextrin column, 0% (no CDs)", "value": 2000, "unit": "µg/mL"}, {"measurement": "solubility", "setting": "[2]; water, randomly-methylated-β-cyclodextrin column, 0% (no CDs)", "value": 2000, "unit": "µg/mL"}, {"measurement": "solubility", "setting": "[2]; water, γ-cyclodextrin column, 0% (no CDs)", "value": 2000, "unit": "µg/mL"}, {"measurement": "improvement of aqueous solubility of L-thyroxine sodium", "setting": "[2]; γ-cyclodextrin, among unsubstituted cyclodextrins", "value": "improve the aqueous solubility of L-thyroxine sodium most remarkably"}]}
{"compound": "OC[C@H]1O[C@@H]2O[C@H]3[C@H](O)[C@@H](O)[C@@H](O[C@H]4[C@H](O)[C@@H](O)[C@@H](O[C@H]5[C@H](O)[C@@H](O)[C@@H](O[C@H]6[C@H](O)[C@@H](O)[C@@H](O[C@H]7[C@H](O)[C@@H](O)[C@@H](O[C@H]8[C@H](O)[C@@H](O)[C@@H](O[C@H]9[C@H](O)[C@@H](O)[C@@H](O[C@H]1[C@H](O)[C@H]2O)O[C@@H]9CO)O[C@@H]8CO)O[C@@H]7CO)O[C@@H]6CO)O[C@@H]5CO)O[C@@H]4CO)O[C@@H]3CO", "note": "[γ-cyclodextrin]", "values": [{"measurement": "precipitate formation", "setting": "[3]; aqueous γ-cyclodextrin solution without L-thyroxine-Na, after one week of storage", "value": "small amount of white precipitate formation"}, {"measurement": "haze / precipitate formation on storage", "setting": "[3]; clear aqueous γ-cyclodextrin solutions without L-thyroxine-Na, or L-thyroxine-Na/γ-cyclodextrin hydrogels", "value": "hazy within three days"}]}
{"compound": "thyroxine", "values": [{"measurement": "effect on the solubility of thyroxine", "setting": "[2]", "value": "practically no effect"}, {"measurement": "improvement of aqueous solubility of thyroxine", "setting": "[2]", "value": "did not significantly improve the aqueous solubility of thyroxine"}, {"measurement": "solubilizing potency of methylated-β-cyclodextrins for thyroxine versus γ-cyclodextrin", "setting": "[2]", "value": "less potent solubilizers of thyroxine, than the chemically non-modified γ-cyclodextrin"}]}
